Test [1] deals with Thrombin and coagulation factor X (Homo sapiens) (UniProt P00734+P00742). Description: Ratio of factor Xa inhibitory activity to that of factor IIa inhibitory activity. The class given is protein assay.
Test [2] can be described thus: Inhibitory activity against prothrombinase complex (IIase).
A further test addresses Prothrombin (Homo sapiens, UniProt P00734). Description: Inhibitory activity against coagulation factor II (thrombin).
The target of test [3] is Coagulation factor X (Homo sapiens, UniProt P00742). Description: Inhibitory activity against coagulation factor X.
Test [4] concerns the target Coagulation factor X (Bos taurus, UniProt P00743). Description: Second-order rate of substrate hydrolysis (kcat/Km) by bovine coagulation factor X.

Square brackets hold non-standard residues; d marks the D form. Peptide text beside a SMILES is read from it. * marks the point of attachment. ξ: configuration not given here. 1Nal = N[C@@H](Cc1cccc2ccccc12)C(=O)O; ξR = N=C(N)NCCCC(N)C(=O)O; Boc = CC(C)(C)OC(=O)*; ξP = O=C(O)C1CCCN1

Sequence of Coagulation factor X (Homo sapiens, UniProt P00742) (P00742 41-179 limits assumed): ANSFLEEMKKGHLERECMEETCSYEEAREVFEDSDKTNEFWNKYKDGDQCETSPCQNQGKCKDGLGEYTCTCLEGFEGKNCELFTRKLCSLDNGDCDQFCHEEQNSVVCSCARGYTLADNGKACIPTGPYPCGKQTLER
Sequence of Coagulation factor X (Homo sapiens, UniProt P00742) (P00742 235-488 limits assumed): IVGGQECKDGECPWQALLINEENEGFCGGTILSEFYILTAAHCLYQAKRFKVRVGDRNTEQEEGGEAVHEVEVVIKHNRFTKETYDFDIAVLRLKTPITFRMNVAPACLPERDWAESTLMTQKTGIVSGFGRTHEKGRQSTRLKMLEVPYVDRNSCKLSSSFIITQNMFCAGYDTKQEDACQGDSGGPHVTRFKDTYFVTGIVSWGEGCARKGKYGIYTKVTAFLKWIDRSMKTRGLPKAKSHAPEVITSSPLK
Sequence of Thrombin and coagulation factor X (Homo sapiens) (P00742 whole entry, looked up, other chains not shown): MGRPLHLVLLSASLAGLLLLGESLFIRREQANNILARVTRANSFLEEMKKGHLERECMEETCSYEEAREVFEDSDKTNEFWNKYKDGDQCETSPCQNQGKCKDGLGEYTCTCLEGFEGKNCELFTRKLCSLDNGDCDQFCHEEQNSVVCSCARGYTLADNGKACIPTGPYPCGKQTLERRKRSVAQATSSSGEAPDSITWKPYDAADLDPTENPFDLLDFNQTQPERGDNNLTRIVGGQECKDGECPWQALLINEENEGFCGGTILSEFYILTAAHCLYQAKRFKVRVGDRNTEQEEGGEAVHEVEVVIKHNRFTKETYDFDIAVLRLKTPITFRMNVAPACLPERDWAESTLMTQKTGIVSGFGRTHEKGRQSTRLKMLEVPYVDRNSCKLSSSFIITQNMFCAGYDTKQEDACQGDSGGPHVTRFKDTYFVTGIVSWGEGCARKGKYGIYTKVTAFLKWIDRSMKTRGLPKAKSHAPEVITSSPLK
Sequence of Coagulation factor X (Bos taurus, UniProt P00743) (P00743 41-180 limits assumed): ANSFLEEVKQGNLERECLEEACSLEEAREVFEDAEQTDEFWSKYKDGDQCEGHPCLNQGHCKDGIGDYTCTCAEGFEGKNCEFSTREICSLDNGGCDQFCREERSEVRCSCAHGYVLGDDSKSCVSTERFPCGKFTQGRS
Sequence of Coagulation factor X (Bos taurus, UniProt P00743) (P00743 234-492 limits assumed): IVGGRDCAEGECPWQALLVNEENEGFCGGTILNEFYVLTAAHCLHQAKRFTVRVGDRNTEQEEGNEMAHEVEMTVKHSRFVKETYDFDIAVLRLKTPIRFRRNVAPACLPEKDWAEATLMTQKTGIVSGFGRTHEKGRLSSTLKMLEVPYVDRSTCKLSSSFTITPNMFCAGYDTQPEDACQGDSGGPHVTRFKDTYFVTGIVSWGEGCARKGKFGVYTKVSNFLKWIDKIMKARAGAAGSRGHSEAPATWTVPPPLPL

On to `C/N=C(\N(C)C)N(C)CCCC[C@H](NC(=O)OC(C)(C)C)C(=O)NCC(=O)NC(C=O)CCCN=C(N)N` (some centres undefined), for which the Ratio in test [1] is 30. This compound returned an IC50 in test [2] of 12000 nM.
Turning to `C/N=C(\N(C)C)N(C)CCCC[C@H](NC(=O)OC(C)(C)C)C(=O)NCC(=O)NC(C=O)CCCNC(=N)N` (some centres undefined), the IC50 on Prothrombin was more than 100000 nM; against Coagulation factor X [3], 3000 nM.
On to `N=C(N)NCCCC(C=O)NC(=O)CNC(=O)[C@H](CCCN=C(N)N)NS(=O)(=O)CCc1ccccc1` (some centres undefined), for which the Ratio in test [1] was found to be 2300. The same compound came in with an IC50 in test [2] of 38 nM.
In the case of `N=C(N)NCCCC(C=O)NC(=O)CNC(=O)[C@H](CCCNC(=N)N)NS(=O)(=O)CCc1ccccc1` (some centres undefined), the figures for the IC50 on Prothrombin and against Coagulation factor X [3] were 64000 nM and 28 nM, respectively.
With `N=C(N)NCCCC(C=O)NC(=O)CNC(=O)[C@H](CCCNC(=N)N)NS(=O)(=O)Cc1ccccc1` (some centres undefined), the concentration for half-maximal inhibition (IC50) against Prothrombin is 50000 nM.
Take `N=C(N)NCCCC(C=O)NC(=O)CNC(=O)[C@H](CCCNC(=N)N)NS(=O)(=O)CCc1cccc2ccccc12` (some centres undefined): the IC50 on Prothrombin came out at 39000 nM; against Coagulation factor X [3], 27 nM; in test [2], 20 nM. In addition, the Ratio in test [1] came out at 1500.
On to `CN(CC(=O)NC(C=O)CCCN=C(N)N)C(=O)[C@H](CCCN=C(N)N)NS(=O)(=O)Cc1ccccc1` (some centres undefined), for which the Ratio in test [1] came to 100. In addition, the concentration for half-maximal inhibition (IC50) in test [2] worked out at 58 nM.
On to `CN(CC(=O)NC(C=O)CCCNC(=N)N)C(=O)[C@H](CCCNC(=N)N)NS(=O)(=O)Cc1ccccc1` (some centres undefined), for which the half-maximal inhibitory concentration (IC50) was 2000 nM against Prothrombin and 20 nM against Coagulation factor X [3].
As to `CC(C)(C)OC(=O)N[C@@H](CCCNC(=N)N)C(=O)NCCC(=O)NC(C=O)CCCNC(=N)N` (some centres undefined), the IC50 against Prothrombin was more than 500000 nM.
Still for that read-out and setting: in the case of `N=C(N)NCCCC(C=O)NC(=O)CNC(=O)[C@H](CCCNC(=N)N)NC(=O)COc1ccc2ccccc2c1` (some centres undefined) it was more than 100000 nM.
On to `CC(C)(C)OC(=O)N[C@@H](CCCN=C(N)N)C(=O)N1CCC[C@H]1C(=O)NC(C=O)CCCN=C(N)N` (stereo partly drawn) (Boc-Arg-Pro-[ξR]-aldehyde), for which the half-maximal inhibitory concentration (IC50) on Prothrombin is more than 500000 nM; at Coagulation factor X [3], 60000 nM; in test [2], 440000 nM. For the same compound, the Ratio in test [1] stood at 8.
Take `CC(C)(C)OC(=O)N[C@@H](CCCN=C(N)N)C(=O)N[C@@H](Cc1cccc2ccccc12)C(=O)NC(C=O)CCCN=C(N)N` (stereo partly drawn) (Boc-Arg-[1Nal]-[ξR]-aldehyde): the Ratio in test [1] turned out to be 300. Besides, the IC50 in test [2] turned out to be 340 nM.
With `CC(C)(C)OC(=O)N[C@@H](CCCNC(=N)N)C(=O)N[C@@H](Cc1cccc2ccccc12)C(=O)NC(C=O)CCCNC(=N)N` (stereo partly drawn) (Boc-Arg-[1Nal]-[ξR]-aldehyde), the figures for the IC50 against Prothrombin and at Coagulation factor X [3] were 42000 nM and 140 nM, respectively.
For the compound `CC(C)(C)OC(=O)N[C@@H](CCCN=C(N)N)C(=O)N1CCCC1C(=O)NC(C=O)CCCN=C(N)N` (stereo partly drawn) (Boc-Arg-[ξP]-[ξR]-aldehyde), the Ratio in test [1] is 4. The compound also displayed a half-inhibitory concentration (IC50) in test [2] of 21 nM.
Take `CC(C)(C)OC(=O)N[C@@H](CCCNC(=N)N)C(=O)N1CCCC1C(=O)NC(C=O)CCCNC(=N)N` (stereo partly drawn) (Boc-Arg-[ξP]-[ξR]-aldehyde): the IC50 on Prothrombin turned out to be 200 nM; on Coagulation factor X [3], 46 nM.
For `N=C(N)NCCC[C@H](NC(=O)CNC(=O)[C@@H](CCCNC(=N)N)NC(=O)OCc1ccccc1)C(=O)Nc1ccc([N+](=O)[O-])cc1` (HELM PEPTIDE1{[O=C(OCc1ccccc1)[*:2]].[dR].G.R.[O=[N+]([O-])c1ccc(N[*:1])cc1]}$$$$V2.0), on Coagulation factor X [4], the kcat/Km came to 2.27e+06 M⁻¹ s⁻¹.
On the same count and under the same terms, as for `CC[C@H](C)[C@H](NC(=O)c1ccccc1)C(=O)N[C@@H](CCC(=O)O)C(=O)NCC(=O)N[C@@H](CCCN=C(N)N)C(=O)Nc1ccc([N+](=O)[O-])cc1` (HELM PEPTIDE1{[O=C(c1ccccc1)[*:2]].I.E.G.R.[O=[N+]([O-])c1ccc(N[*:1])cc1]}$$$$V2.0), the figure is 350000 M⁻¹ s⁻¹.
Regarding `CC(C)(C)OC(=O)NC(CCCN=C(N)N)C(=O)NC(C)(C)C(=O)N[C@H](C=O)CCCN=C(N)N` (single isomer, unassigned), the IC50 against Prothrombin was more than 500000 nM.
In the case of `CC(C)(C)OC(=O)NC(CCCCN=C(N)N)C(=O)NCC(=O)N[C@H](C=O)CCCN=C(N)N` (single isomer, unassigned), the IC50 on Prothrombin came out at 400000 nM; in test [2], 170 nM. The Ratio in test [1] is 4000.
On to `CC(=N)NCCCC(NC(=O)OC(C)(C)C)C(=O)NCC(=O)N[C@H](C=O)CCCN=C(N)N` (single isomer, unassigned), for which the IC50 against Prothrombin came out at 88000 nM; against Coagulation factor X [3], 1000 nM; in test [2], 10000 nM. Besides, in test [1], the Ratio was found to be 88.
On to `CC(C)(C)OC(=O)NC(CCCNC(N)=O)C(=O)NCC(=O)N[C@H](C=O)CCCN=C(N)N` (single isomer, unassigned), for which, at Prothrombin, the IC50 was more than 100000 nM.
Consider `CC(C)(C)OC(=O)NC(CCCN)C(=O)NCC(=O)N[C@H](C=O)CCCN=C(N)N` (single isomer, unassigned), for which the figures for the IC50 (on Prothrombin; against Coagulation factor X [3]; in test [2]) were more than 500000 nM, 12000 nM and 65000 nM, respectively. The Ratio in test [1] worked out at 42.
Take `N=C(N)NCCCC(NC(=O)CC(=O)O)C(=O)NCC(=O)N[C@H](C=O)CCCNC(=N)N` (single isomer, unassigned): the results for the IC50 against Prothrombin and against Coagulation factor X [3] were more than 100000 nM and 100 nM, respectively.
Compound `N=C(N)NCCCC(NC(=O)CCC(=O)O)C(=O)NCC(=O)N[C@H](C=O)CCCNC(=N)N` (single isomer, unassigned) came in with a half-maximal inhibitory concentration (IC50) against Prothrombin of more than 100000 nM.
Consider `N=C(N)NCCCC(NC(=O)CCc1ccccc1)C(=O)NCC(=O)N[C@H](C=O)CCCNC(=N)N` (single isomer, unassigned), for which the Ratio in test [1] was determined as 375. The compound further gave an IC50 in test [2] of 2000 nM.
Regarding `N=C(N)NCCC[C@@H](C=O)NC(=O)CNC(=O)C(CCCN=C(N)N)NC(=O)NCc1ccccc1` (single isomer, unassigned), the IC50 against Prothrombin is 170000 nM; at Coagulation factor X [3], 220 nM; in test [2], 180 nM. Also, the Ratio in test [1] is 770.
As for `CCOC(=O)NC(CCCN=C(N)N)C(=O)NCC(=O)N[C@H](C=O)CCCN=C(N)N` (single isomer, unassigned), the IC50 on Prothrombin is more than 100000 nM; on Coagulation factor X [3], 30 nM.
`NC(N)=NCCCC(N)C(=O)NCC(=O)N[C@H](C=O)CCCN=C(N)N` (single isomer, unassigned): the IC50 against Prothrombin amounted to 55000 nM; against Coagulation factor X [3], 190 nM; in test [2] it was 828 nM. The Ratio in test [1] is 290.
`CC(C)(C)OC(=O)NC(CCCCN)C(=O)NCC(=O)N[C@H](C=O)CCCN=C(N)N` (single isomer, unassigned) came in with an IC50 against Prothrombin of more than 100000 nM.
In the case of `N=C(N)NCCCC(NC(=O)C(=O)O)C(=O)NCC(=O)N[C@H](C=O)CCCNC(=N)N` (single isomer, unassigned), half-maximal inhibition in test [2] (IC50) required 630 nM.
`CC(C)(C)OC(=O)NC(CCCN=C(N)N)C(=O)NCC(=O)N[C@H](C=O)CCCN=C(N)N` (single isomer, unassigned; 4) yielded a concentration for half-maximal inhibition (IC50) against Coagulation factor X [3] of 2000 nM.

In general, IC50 refers to the point on the concentration scale where inhibition reaches its midpoint. The low end stands for greater potency in that assay, the high end for weaker potency in that assay. As a reminder, the kcat/Km is the turnover number divided by the Michaelis constant.

The values above are taken from ChEMBL document CHEMBL1132850, “Design, synthesis and structure-activity relationship of a series of arginine aldehyde factor Xa inhibitors. Part 1: structures based on the (D)-Arg-Gly-Arg tripeptide sequence” (Bioorg Med Chem Lett, 2000).
